From the NIST ThermoML archive (doi:10.1016/j.fluid.2010.03.027)
± gives the expanded uncertainty stated by the source.

Columns and labels:
[1] = Liquid, Closed cell (Static) method
[2] = activity coefficient (dimensionless); of the first substance listed, at infinite dilution; xn = mol fraction of the nth substance listed; conditions: 101 kPa, Liquid, dilutor technique, x1 = 0

C1CCSC1 [tetrahydrothiophene]
vapor or sublimation pressure ([1]; 293.97 K): 2.1 ± 1.2 kPa | vapor or sublimation pressure ([1]; 312.87 K): 5.9 ± 1.2 kPa

CSC [2-thiapropane] + C=CCCCC
activity coefficient ([2]; 288.15 K): 1.77 ± 0.68 | activity coefficient ([2]; 298.15 K): 1.71 ± 0.52 | activity coefficient ([2]; 303.15 K): 1.64 ± 0.46

CSC [2-thiapropane] + CCCCCC
activity coefficient ([2]; 288.15 K): 2.16 ± 0.9 | activity coefficient ([2]; 293.15 K): 2.04 ± 0.78 | activity coefficient ([2]; 298.15 K): 1.95 ± 0.68 | activity coefficient ([2]; 303.15 K): 1.91 ± 0.6

CSC [2-thiapropane] + C=C(C)CC(C)(C)C
activity coefficient ([2]; 288.15 K): 1.5 ± 0.66 | activity coefficient ([2]; 298.15 K): 1.45 ± 0.52 | activity coefficient ([2]; 303.15 K): 1.4 ± 0.44

CCC [propane]
vapor or sublimation pressure ([1]; 293.94 K): 852.6 ± 2.3 kPa | vapor or sublimation pressure ([1]; 293.97 K): 853.1 ± 2.3 kPa | vapor or sublimation pressure ([1]; 312.85 K): 1358.5 ± 2.8 kPa | vapor or sublimation pressure ([1]; 312.87 K): 1361.3 ± 2.8 kPa

CSC [2-thiapropane] + CC(C)CC(C)(C)C
activity coefficient ([2]; 288.15 K): 1.77 ± 0.7 | activity coefficient ([2]; 298.15 K): 1.72 ± 0.54 | activity coefficient ([2]; 303.15 K): 1.67 ± 0.3

CSC [2-thiapropane]
vapor or sublimation pressure ([1]; 293.94 K): 53.2 ± 1.2 kPa | vapor or sublimation pressure ([1]; 312.86 K): 108.8 ± 1.2 kPa
